PubChem BioAssay AID652090 (Broad Institute, 2013)

Tests used:
Assay in all cases: protein binders identified by SILAC affinity pulldown, late-stage follow-up, mechanism study for beta-cell protection project, cell lysate, INS-1E, SILAC competition, mass spectrometry (AID 652090)
[1] = tested on: Ap3b2; details: INS-1E SILAC affinity pulldown, competition MS ratio
[2] = tested on: Gapdh; details: INS-1E SILAC affinity pulldown, competition MS ratio, enrichment significance, stronger effect = lower value
[3] = target: Retsat (UniProt Q8VHE9); details: INS-1E SILAC affinity pulldown, competition MS ratio, stronger effect = higher value
[4] = target: Cand2 (UniProt Q9R0L4); details: INS-1E SILAC affinity pulldown, competition MS ratio, stronger effect = higher value
[5] = tested on: Lrpprc; details: INS-1E SILAC affinity pulldown, competition MS ratio, enrichment significance, stronger effect = lower value
[6] = target: Lrpprc (UniProt Q5SGE0); details: INS-1E SILAC affinity pulldown, competition MS ratio, stronger effect = higher value
[7] = tested on: Timm44; details: INS-1E SILAC affinity pulldown, competition MS ratio, enrichment significance, stronger effect = lower value
[8] = tested on: Retsat; details: INS-1E SILAC affinity pulldown, competition MS ratio, enrichment significance, stronger effect = lower value
[9] = tested on: Xpo1; details: INS-1E SILAC affinity pulldown, competition MS ratio, enrichment significance, stronger effect = lower value
[10] = target: Timm44 (UniProt O35094); details: INS-1E SILAC affinity pulldown, competition MS ratio, stronger effect = higher value
[11] = tested on: Cand2; details: INS-1E SILAC affinity pulldown, competition MS ratio, enrichment significance, stronger effect = lower value
[12] = tested on: Ahcy; details: INS-1E SILAC affinity pulldown, competition MS ratio, enrichment significance, stronger effect = lower value
[13] = tested on: RGD1309903; details: INS-1E SILAC affinity pulldown, competition MS ratio
[14] = tested on: Ipo4; details: INS-1E SILAC affinity pulldown, competition MS ratio
[15] = tested on: Tbc1d15; details: INS-1E SILAC affinity pulldown, competition MS ratio
[16] = tested on: LOC303448; details: INS-1E SILAC affinity pulldown, competition MS ratio
[17] = target: Xpo1 (UniProt Q80U96); details: INS-1E SILAC affinity pulldown, competition MS ratio, stronger effect = higher value
[18] = tested on: Usp9x; details: INS-1E SILAC affinity pulldown, competition MS ratio
[19] = tested on: Mcm6; details: INS-1E SILAC affinity pulldown, competition MS ratio, enrichment significance, stronger effect = lower value
[20] = tested on: Cand1; details: INS-1E SILAC affinity pulldown, competition MS ratio
[21] = target: Adenosylhomocysteinase (Rattus norvegicus) (UniProt P10760); details: INS-1E SILAC affinity pulldown, competition MS ratio; Ahcy; stronger effect = higher value
[22] = tested on: Ipo9; details: INS-1E SILAC affinity pulldown, competition MS ratio
[23] = target: Glyceraldehyde-3-phosphate dehydrogenase (Rattus norvegicus) (UniProt P04797); details: INS-1E SILAC affinity pulldown, competition MS ratio; Gapdh; stronger effect = higher value
[24] = target: Mcm6 (UniProt Q62724); details: INS-1E SILAC affinity pulldown, competition MS ratio, stronger effect = higher value
[25] = tested on: Blvrb; details: INS-1E SILAC affinity pulldown, competition MS ratio
[26] = enrichment significance, stronger effect = lower value

Sequence of Lrpprc (UniProt Q5SGE0) (Q5SGE0 whole entry, looked up): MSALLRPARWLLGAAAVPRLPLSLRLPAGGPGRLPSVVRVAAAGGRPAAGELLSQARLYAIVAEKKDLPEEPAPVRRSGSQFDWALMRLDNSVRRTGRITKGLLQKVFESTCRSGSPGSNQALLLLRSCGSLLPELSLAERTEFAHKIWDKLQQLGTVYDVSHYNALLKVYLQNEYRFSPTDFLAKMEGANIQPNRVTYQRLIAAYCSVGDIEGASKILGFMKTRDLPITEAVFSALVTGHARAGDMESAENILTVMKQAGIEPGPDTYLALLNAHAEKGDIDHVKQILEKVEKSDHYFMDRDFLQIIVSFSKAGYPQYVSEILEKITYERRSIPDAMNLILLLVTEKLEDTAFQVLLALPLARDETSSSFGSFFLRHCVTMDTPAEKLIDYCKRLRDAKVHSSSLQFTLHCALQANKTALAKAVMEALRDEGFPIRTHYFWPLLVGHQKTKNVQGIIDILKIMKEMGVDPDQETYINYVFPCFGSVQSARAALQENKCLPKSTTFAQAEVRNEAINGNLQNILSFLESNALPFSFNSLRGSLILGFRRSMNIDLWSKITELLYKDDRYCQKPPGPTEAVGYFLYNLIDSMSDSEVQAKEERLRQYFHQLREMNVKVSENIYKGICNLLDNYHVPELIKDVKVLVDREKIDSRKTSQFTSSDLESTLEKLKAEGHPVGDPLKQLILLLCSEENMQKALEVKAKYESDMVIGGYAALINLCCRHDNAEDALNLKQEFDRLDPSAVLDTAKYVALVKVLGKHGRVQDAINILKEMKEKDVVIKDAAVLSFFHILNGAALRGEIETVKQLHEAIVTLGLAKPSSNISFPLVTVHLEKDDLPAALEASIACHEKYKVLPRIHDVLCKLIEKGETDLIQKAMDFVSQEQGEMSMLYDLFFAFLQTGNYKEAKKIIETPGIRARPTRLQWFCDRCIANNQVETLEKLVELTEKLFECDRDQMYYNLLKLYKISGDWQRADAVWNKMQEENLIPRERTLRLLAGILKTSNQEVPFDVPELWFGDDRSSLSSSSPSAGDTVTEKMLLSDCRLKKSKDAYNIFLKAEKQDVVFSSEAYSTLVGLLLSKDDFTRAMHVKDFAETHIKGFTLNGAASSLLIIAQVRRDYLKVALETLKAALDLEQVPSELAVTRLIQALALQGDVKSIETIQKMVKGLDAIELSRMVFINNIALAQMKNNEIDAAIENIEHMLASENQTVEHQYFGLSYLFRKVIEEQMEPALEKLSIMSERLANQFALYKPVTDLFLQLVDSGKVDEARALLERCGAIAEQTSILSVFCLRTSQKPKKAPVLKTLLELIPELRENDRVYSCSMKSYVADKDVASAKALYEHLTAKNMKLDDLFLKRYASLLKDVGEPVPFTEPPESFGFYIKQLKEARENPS
Sequence of Cand2 (UniProt Q9R0L4) (Q9R0L4 whole entry, looked up): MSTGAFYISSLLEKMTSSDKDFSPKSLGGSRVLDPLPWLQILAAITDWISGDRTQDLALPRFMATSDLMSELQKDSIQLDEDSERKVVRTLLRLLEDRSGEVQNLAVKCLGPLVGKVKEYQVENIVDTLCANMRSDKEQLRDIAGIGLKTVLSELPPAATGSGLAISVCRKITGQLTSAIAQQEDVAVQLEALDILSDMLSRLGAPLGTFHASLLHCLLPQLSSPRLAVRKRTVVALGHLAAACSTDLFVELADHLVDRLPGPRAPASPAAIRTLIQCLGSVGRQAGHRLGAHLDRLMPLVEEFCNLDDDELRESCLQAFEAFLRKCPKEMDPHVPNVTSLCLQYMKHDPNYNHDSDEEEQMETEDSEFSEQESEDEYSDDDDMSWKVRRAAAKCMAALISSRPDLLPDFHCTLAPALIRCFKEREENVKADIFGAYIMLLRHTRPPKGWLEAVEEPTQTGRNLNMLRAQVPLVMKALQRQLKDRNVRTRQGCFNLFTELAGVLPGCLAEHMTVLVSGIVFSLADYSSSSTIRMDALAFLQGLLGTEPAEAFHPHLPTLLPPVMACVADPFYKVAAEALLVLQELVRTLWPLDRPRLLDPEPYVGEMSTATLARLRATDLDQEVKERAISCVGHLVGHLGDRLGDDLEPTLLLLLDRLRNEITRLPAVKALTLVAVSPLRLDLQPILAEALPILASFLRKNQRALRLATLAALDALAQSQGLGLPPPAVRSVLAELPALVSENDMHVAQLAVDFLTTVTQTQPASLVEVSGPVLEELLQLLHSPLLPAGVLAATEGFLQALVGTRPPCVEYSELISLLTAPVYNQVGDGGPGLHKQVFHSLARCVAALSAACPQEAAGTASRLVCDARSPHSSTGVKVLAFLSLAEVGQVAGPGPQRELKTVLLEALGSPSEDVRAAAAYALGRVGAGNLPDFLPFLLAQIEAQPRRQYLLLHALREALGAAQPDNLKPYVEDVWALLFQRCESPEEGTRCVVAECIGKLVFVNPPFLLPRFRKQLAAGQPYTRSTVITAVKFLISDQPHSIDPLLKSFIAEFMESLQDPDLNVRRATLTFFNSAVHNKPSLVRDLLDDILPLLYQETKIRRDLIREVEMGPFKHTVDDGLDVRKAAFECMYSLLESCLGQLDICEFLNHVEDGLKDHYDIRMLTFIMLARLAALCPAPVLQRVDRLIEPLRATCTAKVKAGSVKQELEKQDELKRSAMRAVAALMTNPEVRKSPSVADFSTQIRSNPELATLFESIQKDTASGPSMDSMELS
Sequence of Adenosylhomocysteinase (Rattus norvegicus) (P10760 whole entry, looked up): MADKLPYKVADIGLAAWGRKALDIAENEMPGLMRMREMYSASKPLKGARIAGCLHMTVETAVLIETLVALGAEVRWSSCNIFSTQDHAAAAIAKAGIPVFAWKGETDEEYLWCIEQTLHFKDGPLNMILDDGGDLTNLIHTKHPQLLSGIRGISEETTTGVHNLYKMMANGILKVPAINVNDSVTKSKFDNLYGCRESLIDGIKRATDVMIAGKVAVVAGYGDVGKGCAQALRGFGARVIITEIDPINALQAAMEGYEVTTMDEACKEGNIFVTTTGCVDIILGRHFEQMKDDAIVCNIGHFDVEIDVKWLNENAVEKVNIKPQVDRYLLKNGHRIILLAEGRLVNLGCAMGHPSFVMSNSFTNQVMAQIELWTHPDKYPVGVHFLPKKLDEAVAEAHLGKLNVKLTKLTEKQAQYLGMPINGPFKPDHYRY
Sequence of Glyceraldehyde-3-phosphate dehydrogenase (Rattus norvegicus) (P04797 whole entry, looked up): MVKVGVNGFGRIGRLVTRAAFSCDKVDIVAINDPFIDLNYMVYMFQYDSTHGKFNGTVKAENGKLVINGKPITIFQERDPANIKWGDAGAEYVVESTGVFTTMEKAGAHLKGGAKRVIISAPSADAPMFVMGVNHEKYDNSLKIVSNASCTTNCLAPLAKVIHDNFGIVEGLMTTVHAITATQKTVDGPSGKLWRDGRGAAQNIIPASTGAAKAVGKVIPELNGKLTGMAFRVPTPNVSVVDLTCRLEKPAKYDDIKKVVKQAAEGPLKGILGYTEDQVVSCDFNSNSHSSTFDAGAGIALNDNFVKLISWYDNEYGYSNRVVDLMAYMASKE
Sequence of Retsat (UniProt Q8VHE9) (Q8VHE9 whole entry, looked up): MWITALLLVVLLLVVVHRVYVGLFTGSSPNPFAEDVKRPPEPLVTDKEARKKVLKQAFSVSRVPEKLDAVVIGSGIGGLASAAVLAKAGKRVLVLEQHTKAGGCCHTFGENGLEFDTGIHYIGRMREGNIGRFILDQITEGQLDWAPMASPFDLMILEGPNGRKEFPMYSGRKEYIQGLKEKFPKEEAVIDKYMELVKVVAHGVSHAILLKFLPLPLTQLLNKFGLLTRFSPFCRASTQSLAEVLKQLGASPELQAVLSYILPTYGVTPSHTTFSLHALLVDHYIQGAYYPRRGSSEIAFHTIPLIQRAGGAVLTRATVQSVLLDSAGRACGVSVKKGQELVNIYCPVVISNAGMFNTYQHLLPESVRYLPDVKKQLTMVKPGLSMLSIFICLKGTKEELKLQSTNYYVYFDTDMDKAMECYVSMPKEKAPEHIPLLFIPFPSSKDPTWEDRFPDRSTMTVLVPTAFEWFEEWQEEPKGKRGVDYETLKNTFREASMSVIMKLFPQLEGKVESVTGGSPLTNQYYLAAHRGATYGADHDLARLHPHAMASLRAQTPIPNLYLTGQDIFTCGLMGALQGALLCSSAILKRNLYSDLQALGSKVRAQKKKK
Sequence of Mcm6 (UniProt Q62724) (Q62724 whole entry, looked up): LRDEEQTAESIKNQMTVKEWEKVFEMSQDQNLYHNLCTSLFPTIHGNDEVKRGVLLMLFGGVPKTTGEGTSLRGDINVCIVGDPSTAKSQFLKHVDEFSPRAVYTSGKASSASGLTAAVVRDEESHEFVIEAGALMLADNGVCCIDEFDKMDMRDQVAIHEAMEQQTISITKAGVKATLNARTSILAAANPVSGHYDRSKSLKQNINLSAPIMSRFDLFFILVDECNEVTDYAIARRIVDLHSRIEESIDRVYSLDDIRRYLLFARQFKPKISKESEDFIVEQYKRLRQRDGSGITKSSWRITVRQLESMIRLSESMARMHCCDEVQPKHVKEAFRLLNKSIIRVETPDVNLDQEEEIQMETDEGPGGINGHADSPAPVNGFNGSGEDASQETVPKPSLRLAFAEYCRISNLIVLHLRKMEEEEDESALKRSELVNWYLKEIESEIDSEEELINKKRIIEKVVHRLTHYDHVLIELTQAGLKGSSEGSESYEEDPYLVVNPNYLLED
Sequence of Timm44 (UniProt O35094) (O35094 whole entry, looked up): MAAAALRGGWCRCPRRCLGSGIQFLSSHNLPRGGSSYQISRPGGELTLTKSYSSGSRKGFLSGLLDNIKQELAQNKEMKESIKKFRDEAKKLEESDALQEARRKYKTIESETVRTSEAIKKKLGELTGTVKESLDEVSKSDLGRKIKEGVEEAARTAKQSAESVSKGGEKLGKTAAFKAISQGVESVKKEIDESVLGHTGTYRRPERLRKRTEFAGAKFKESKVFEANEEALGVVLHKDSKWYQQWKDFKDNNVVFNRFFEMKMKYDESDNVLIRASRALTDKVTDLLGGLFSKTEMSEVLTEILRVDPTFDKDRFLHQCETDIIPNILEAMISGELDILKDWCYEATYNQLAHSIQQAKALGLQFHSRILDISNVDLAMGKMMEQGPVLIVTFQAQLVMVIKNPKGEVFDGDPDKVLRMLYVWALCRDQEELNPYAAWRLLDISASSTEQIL

C[C@@H]1CN([C@@H](C)CO)C(=O)c2cccc(NC(=O)Nc3cccc4ccccc34)c2O[C@H]1CN(C)S(=O)(=O)c1ccc2c(c1)OCCO2
p-value [1, 26]: 1.01e-06
log2 SILAC competition ratio ([1]; stronger effect = higher value): 0.84
p-value [2]: 7.85e-05
log2 SILAC competition ratio [3]: 0.58
log2 SILAC competition ratio [4]: 0.496
p-value [5]: 0.00102
log2 SILAC competition ratio [6]: 0.64
p-value [7]: 0.0266
p-value [8]: 0.00538
p-value [9]: 0.0109
log2 SILAC competition ratio [10]: 0.52
p-value [11]: 0.0511
p-value [12]: 8.65e-05
p-value [13, 26]: 0.000418
log2 SILAC competition ratio ([13]; stronger effect = higher value): 0.67
p-value [14, 26]: 0.000164
log2 SILAC competition ratio ([14]; stronger effect = higher value): 0.7
p-value [15, 26]: 6.97e-05
log2 SILAC competition ratio ([15]; stronger effect = higher value): 0.72
p-value [16, 26]: 3.33e-05
log2 SILAC competition ratio ([16]; stronger effect = higher value): 0.74
log2 SILAC competition ratio [17]: 0.56
p-value [18, 26]: 2.07e-09
log2 SILAC competition ratio ([18]; stronger effect = higher value): 0.98
p-value [19]: 2.29e-26
p-value [20, 26]: 7.49e-06
log2 SILAC competition ratio ([20]; stronger effect = higher value): 0.78
log2 SILAC competition ratio [21]: 0.72
p-value [22, 26]: 0.00514
log2 SILAC competition ratio ([22]; stronger effect = higher value): 0.58
log2 SILAC competition ratio [23]: 0.72
log2 SILAC competition ratio [24]: 1.63
p-value [25, 26]: 7.19e-23
log2 SILAC competition ratio ([25]; stronger effect = higher value): 1.52
